Reference: publication PMC10446182, “Reduced steroid activation of elephant shark GR and MR after inserting four amino acids from the DNA-binding domain of lamprey corticoid receptor-1” (PLOS ONE, 2023)
Like-named read-outs stand apart in the source and are kept apart here.

Key:
Experiment in all cases: luciferase reporter transactivation in HEK293 cells
Assay type in all cases: cell-based
[1] = target: T1, FLAG-tagged wild-type elephant shark GR (Callorhinchus milii, UniProt A0A4W3H7L4)
T1 construct: full-length, N-terminal FLAG tag, transiently expressed in HEK293 cells
T1 sequence (A0A4W3H7L4 1-704): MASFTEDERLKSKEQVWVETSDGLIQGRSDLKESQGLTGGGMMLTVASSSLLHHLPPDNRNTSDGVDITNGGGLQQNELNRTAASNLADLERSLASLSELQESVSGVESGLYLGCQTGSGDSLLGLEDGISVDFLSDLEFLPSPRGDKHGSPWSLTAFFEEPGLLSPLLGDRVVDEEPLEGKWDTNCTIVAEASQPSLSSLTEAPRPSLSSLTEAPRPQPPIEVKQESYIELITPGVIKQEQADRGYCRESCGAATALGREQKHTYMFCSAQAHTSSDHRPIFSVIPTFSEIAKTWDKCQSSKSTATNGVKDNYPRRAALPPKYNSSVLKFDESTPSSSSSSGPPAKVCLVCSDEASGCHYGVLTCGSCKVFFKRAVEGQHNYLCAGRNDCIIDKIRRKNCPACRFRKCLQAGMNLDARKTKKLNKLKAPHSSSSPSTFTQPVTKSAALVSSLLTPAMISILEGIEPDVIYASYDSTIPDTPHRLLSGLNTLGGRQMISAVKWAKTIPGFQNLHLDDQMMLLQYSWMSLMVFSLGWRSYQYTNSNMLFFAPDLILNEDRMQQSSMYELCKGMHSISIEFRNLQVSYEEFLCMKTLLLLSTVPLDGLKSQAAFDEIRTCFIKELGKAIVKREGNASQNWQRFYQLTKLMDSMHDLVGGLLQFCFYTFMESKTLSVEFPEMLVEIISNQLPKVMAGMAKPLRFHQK
Excerpt: (§1) luciferase reporter transactivation in HEK293 cells on FLAG-tagged wild-type elephant shark GR

[2] = target: T2, FLAG-tagged wild-type elephant shark GR (Callorhinchus milii, UniProt A0A4W3H7L4); conditions: MMTV-luc promoter; agonist; 37 C
T2 construct: full-length, N-terminal FLAG tag, transiently expressed in HEK293 cells
Excerpt: as §1

[3] = target: T3, FLAG-tagged wild-type elephant shark MR (Callorhinchus milii, UniProt A0A4W3I5J5); conditions: MMTV-luc promoter; agonist; 37 C
T3 construct: gene nr3c2; full-length, N-terminal FLAG tag, transiently expressed in HEK293 cells
Excerpt: luciferase reporter transactivation in HEK293 cells on FLAG-tagged wild-type elephant shark MR

T3 sequence (A0A4W3I5J5 entry or part of it): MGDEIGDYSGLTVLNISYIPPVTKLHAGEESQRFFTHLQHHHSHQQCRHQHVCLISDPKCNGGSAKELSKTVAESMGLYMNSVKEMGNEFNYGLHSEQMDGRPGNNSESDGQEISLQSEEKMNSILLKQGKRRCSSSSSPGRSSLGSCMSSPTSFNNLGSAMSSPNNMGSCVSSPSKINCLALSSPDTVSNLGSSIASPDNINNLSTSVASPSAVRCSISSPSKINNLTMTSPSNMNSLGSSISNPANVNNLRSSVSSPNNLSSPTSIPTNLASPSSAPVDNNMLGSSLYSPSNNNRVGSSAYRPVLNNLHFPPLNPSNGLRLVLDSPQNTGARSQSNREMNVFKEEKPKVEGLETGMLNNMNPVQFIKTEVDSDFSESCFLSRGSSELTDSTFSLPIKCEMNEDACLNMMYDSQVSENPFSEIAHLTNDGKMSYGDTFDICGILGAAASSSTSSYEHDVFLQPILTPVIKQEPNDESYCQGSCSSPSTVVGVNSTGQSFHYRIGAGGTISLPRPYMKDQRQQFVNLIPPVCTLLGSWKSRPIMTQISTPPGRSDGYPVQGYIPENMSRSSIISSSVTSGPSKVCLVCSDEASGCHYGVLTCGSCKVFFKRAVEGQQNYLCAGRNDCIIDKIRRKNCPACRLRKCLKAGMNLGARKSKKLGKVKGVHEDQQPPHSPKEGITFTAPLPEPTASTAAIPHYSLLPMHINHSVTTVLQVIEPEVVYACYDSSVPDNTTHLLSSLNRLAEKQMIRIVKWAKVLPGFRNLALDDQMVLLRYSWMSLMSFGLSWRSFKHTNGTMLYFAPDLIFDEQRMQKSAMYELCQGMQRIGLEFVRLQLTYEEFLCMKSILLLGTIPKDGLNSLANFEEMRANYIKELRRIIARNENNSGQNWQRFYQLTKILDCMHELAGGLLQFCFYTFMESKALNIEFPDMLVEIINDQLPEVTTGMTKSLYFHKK

EC50 [1] [nM] | EC50 [2] [nM] | EC50 [3] [nM] | SMILES
14.1 | – | – | C[C@]12CCC(=O)C=C1CC[C@@H]1[C@@H]2[C@@H](O)C[C@]2(C=O)[C@@H](C(=O)CO)CC[C@@H]12 [Aldo, aldosterone]
6 | – | – | C[C@]12C[C@H](O)[C@H]3[C@@H](CCC4=CC(=O)CC[C@@]43C)[C@@H]1CC[C@@H]2C(=O)CO [CORT, Corticosterone]
25.2 | 13.9 | 0.5 | C[C@]12CCC(=O)C=C1CC[C@@H]1[C@@H]2[C@@H](O)C[C@@]2(C)[C@H]1CC[C@]2(O)C(=O)CO [Cortisol]
– | – | 0.13 | C[C@]12CCC(=O)C=C1CC[C@@H]1[C@@H]2CC[C@@]2(C)[C@H]1CC[C@]2(O)C(=O)CO [S, 11-deoxycortisol]

SMILES | EC50 [1] [nM] | EC50 [2] [nM] | EC50 [3] [nM]
C[C@]12CC[C@H]3[C@@H](CCC4=CC(=O)CC[C@@]43C)[C@@H]1CC[C@@H]2C(=O)CO [DOC, 11-deoxycorticosterone] | 13 | – | –
